± gives the expanded uncertainty stated by the source.
Columns and labels:
[1] = 101.33 kPa, Liquid
[2] = xn = mol fraction of the nth substance listed; settings: 101.33 kPa, Liquid

CCCCCCCCCC=O [decanal]
[1]
Settings | mass density [kg/m3] | viscosity [mPa·s]
298.15 K | 801.24 ± 10 | 1.56 ± 0.049
308.15 K | 789.05 ± 10 | 1.412 ± 0.044
318.15 K | 776.18 ± 11 | 1.281 ± 0.04

CCCCCCCCCC=O [decanal] + CCO
[2]
Settings | mass density, 298.15 K [kg/m3] | mass density, 308.15 K [kg/m3] | mass density, 318.15 K [kg/m3] | viscosity, 298.15 K [mPa·s] | viscosity, 308.15 K [mPa·s] | viscosity, 318.15 K [mPa·s]
x1 = 0.1011 | 785.98 ± 2.9 | 778.7 ± 3.2 | 764.59 ± 3.5 | 1.128 ± 0.035 | 0.939 ± 0.03 | 0.808 ± 0.025
x1 = 0.2102 | 787.14 ± 2.9 | 779.48 ± 3.2 | 765.47 ± 3.5 | 1.174 ± 0.037 | 0.987 ± 0.031 | 0.854 ± 0.027
x1 = 0.3013 | 788.25 ± 2.9 | 780.24 ± 3.2 | 766.32 ± 3.5 | 1.213 ± 0.038 | 1.028 ± 0.032 | 0.895 ± 0.028
x1 = 0.412 | 789.78 ± 2.9 | 781.28 ± 3.2 | 767.48 ± 3.5 | 1.262 ± 0.04 | 1.081 ± 0.034 | 0.947 ± 0.03
x1 = 0.5105 | 791.31 ± 2.9 | 782.32 ± 3.2 | 768.64 ± 3.5 | 1.308 ± 0.041 | 1.131 ± 0.036 | 0.997 ± 0.031
x1 = 0.5836 | 792.55 ± 2.9 | 783.15 ± 3.2 | 769.58 ± 3.5 | 1.343 ± 0.042 | 1.169 ± 0.037 | 1.035 ± 0.033
x1 = 0.6889 | 794.48 ± 2.9 | 784.47 ± 3.2 | 771.05 ± 3.5 | 1.395 ± 0.044 | 1.226 ± 0.038 | 1.092 ± 0.034
x1 = 0.8008 | 796.73 ± 2.9 | 785.99 ± 3.2 | 772.76 ± 3.5 | 1.452 ± 0.045 | 1.29 ± 0.04 | 1.157 ± 0.036
x1 = 0.9145 | 799.23 ± 2.9 | 787.68 ± 3.2 | 774.65 ± 3.6 | 1.513 ± 0.047 | 1.358 ± 0.043 | 1.226 ± 0.038
x1 = 1 | 801.24 ± 3 | 789.05 ± 3.3 | 776.18 ± 3.6 | 1.56 ± 0.049 | 1.412 ± 0.044 | 1.281 ± 0.04

CCO [ethanol]
[1]
Settings | mass density [kg/m3] | viscosity [mPa·s]
298.15 K | 785.08 ± 2.9 | 1.088 ± 0.034
308.15 K | 778.09 ± 3.2 | 0.897 ± 0.028
318.15 K | 763.91 ± 3.5 | 0.767 ± 0.024

CCO [ethanol] + CCCCCC=O
[2], x2 = 0
Settings | mass density [kg/m3] | viscosity [mPa·s]
298.15 K | 785.08 ± 2.9 | 1.088 ± 0.034
308.15 K | 778.09 ± 3.2 | 0.897 ± 0.028
318.15 K | 763.91 ± 3.5 | 0.767 ± 0.024

CCO [ethanol] + CCCCCCCC=O
[2], x2 = 0
Settings | mass density [kg/m3] | viscosity [mPa·s]
298.15 K | 785.08 ± 2.9 | 1.088 ± 0.034
308.15 K | 778.09 ± 3.2 | 0.897 ± 0.028
318.15 K | 763.91 ± 3.5 | 0.767 ± 0.024

CCO [ethanol] + CCCCCCCCC=O
[2], x2 = 0
Settings | mass density [kg/m3] | viscosity [mPa·s]
298.15 K | 785.08 ± 2.9 | 1.088 ± 0.034
308.15 K | 778.09 ± 3.2 | 0.897 ± 0.028
318.15 K | 763.91 ± 3.5 | 0.767 ± 0.024

CCO [ethanol] + CCCCCCCCCC=O
[2], x2 = 0
Settings | mass density [kg/m3] | viscosity [mPa·s]
298.15 K | 785.08 ± 2.9 | 1.088 ± 0.034
308.15 K | 778.09 ± 3.2 | 0.897 ± 0.028
318.15 K | 763.91 ± 3.5 | 0.767 ± 0.024

CCCCCC=O [hexanal]
[1]
Settings | mass density [kg/m3] | viscosity [mPa·s]
298.15 K | 833.12 ± 3.1 | 0.805 ± 0.025
308.15 K | 818.94 ± 3.4 | 0.716 ± 0.023
318.15 K | 804.31 ± 3.7 | 0.639 ± 0.02

CCCCCC=O [hexanal] + CCO
[2]
Settings | mass density, 298.15 K [kg/m3] | mass density, 308.15 K [kg/m3] | mass density, 318.15 K [kg/m3] | viscosity, 298.15 K [mPa·s] | viscosity, 308.15 K [mPa·s] | viscosity, 318.15 K [mPa·s]
x1 = 0.1094 | 788 ± 2.9 | 780.57 ± 3.2 | 766.36 ± 3.5 | 1.053 ± 0.033 | 0.875 ± 0.028 | 0.752 ± 0.024
x1 = 0.2049 | 791.01 ± 2.9 | 783.13 ± 3.2 | 768.9 ± 3.5 | 1.023 ± 0.032 | 0.857 ± 0.027 | 0.739 ± 0.023
x1 = 0.3226 | 795.33 ± 2.9 | 786.81 ± 3.2 | 772.53 ± 3.5 | 0.987 ± 0.031 | 0.834 ± 0.026 | 0.723 ± 0.023
x1 = 0.4037 | 798.69 ± 2.9 | 789.67 ± 3.3 | 775.36 ± 3.6 | 0.963 ± 0.03 | 0.819 ± 0.026 | 0.712 ± 0.022
x1 = 0.5027 | 803.22 ± 3 | 793.52 ± 3.3 | 779.17 ± 3.6 | 0.935 ± 0.029 | 0.801 ± 0.025 | 0.7 ± 0.022
x1 = 0.6207 | 809.24 ± 3 | 798.64 ± 3.3 | 784.23 ± 3.6 | 0.902 ± 0.028 | 0.78 ± 0.025 | 0.685 ± 0.022
x1 = 0.7108 | 814.29 ± 3 | 802.93 ± 3.3 | 788.47 ± 3.6 | 0.878 ± 0.028 | 0.764 ± 0.024 | 0.674 ± 0.021
x1 = 0.81 | 820.3 ± 3 | 808.04 ± 3.4 | 793.53 ± 3.7 | 0.852 ± 0.027 | 0.747 ± 0.024 | 0.662 ± 0.021
x1 = 0.9226 | 827.69 ± 3.1 | 814.32 ± 3.4 | 799.74 ± 3.7 | 0.824 ± 0.026 | 0.729 ± 0.023 | 0.648 ± 0.02
x1 = 1 | 833.12 ± 3.1 | 818.94 ± 3.4 | 804.31 ± 3.7 | 0.805 ± 0.025 | 0.716 ± 0.023 | 0.639 ± 0.02

CCCCCCCCC=O [nonanal]
[1]
Settings | mass density [kg/m3] | viscosity [mPa·s]
298.15 K | 831.04 ± 5 | 1.392 ± 0.044
308.15 K | 818.01 ± 5.1 | 1.251 ± 0.039
318.15 K | 804.72 ± 5.3 | 1.127 ± 0.035

CCCCCCCCC=O [nonanal] + CCO
[2]
Settings | mass density, 298.15 K [kg/m3] | mass density, 308.15 K [kg/m3] | mass density, 318.15 K [kg/m3] | viscosity, 298.15 K [mPa·s] | viscosity, 308.15 K [mPa·s] | viscosity, 318.15 K [mPa·s]
x1 = 0.1034 | 787.7 ± 2.9 | 780.37 ± 3.2 | 766.24 ± 3.5 | 1.116 ± 0.035 | 0.928 ± 0.029 | 0.798 ± 0.025
x1 = 0.2039 | 790.72 ± 2.9 | 782.99 ± 3.2 | 768.92 ± 3.5 | 1.144 ± 0.036 | 0.96 ± 0.03 | 0.83 ± 0.026
x1 = 0.293 | 793.79 ± 2.9 | 785.65 ± 3.2 | 771.64 ± 3.5 | 1.169 ± 0.037 | 0.989 ± 0.031 | 0.859 ± 0.027
x1 = 0.3939 | 797.7 ± 2.9 | 789.05 ± 3.3 | 775.11 ± 3.6 | 1.199 ± 0.038 | 1.023 ± 0.032 | 0.893 ± 0.028
x1 = 0.5045 | 802.52 ± 3 | 793.24 ± 3.3 | 779.4 ± 3.6 | 1.232 ± 0.039 | 1.061 ± 0.033 | 0.931 ± 0.029
x1 = 0.5943 | 806.85 ± 3 | 797 ± 3.3 | 783.24 ± 3.6 | 1.26 ± 0.04 | 1.093 ± 0.034 | 0.964 ± 0.03
x1 = 0.7116 | 813.07 ± 3 | 802.4 ± 3.3 | 788.76 ± 3.6 | 1.297 ± 0.041 | 1.137 ± 0.036 | 1.009 ± 0.032
x1 = 0.7855 | 817.31 ± 3 | 806.08 ± 3.3 | 792.53 ± 3.6 | 1.32 ± 0.041 | 1.165 ± 0.037 | 1.038 ± 0.033
x1 = 0.898 | 824.25 ± 3.1 | 812.11 ± 3.4 | 798.69 ± 3.7 | 1.357 ± 0.043 | 1.209 ± 0.038 | 1.084 ± 0.034
x1 = 1 | 831.04 ± 3.1 | 818.01 ± 3.4 | 804.72 ± 3.7 | 1.392 ± 0.044 | 1.251 ± 0.039 | 1.127 ± 0.035

CCCCCCCC=O [octanal]
[1]
Settings | mass density [kg/m3] | viscosity [mPa·s]
298.15 K | 821.07 ± 3 | 1.2 ± 0.038
308.15 K | 807.34 ± 3.4 | 1.074 ± 0.034
318.15 K | 793.85 ± 3.7 | 0.965 ± 0.03

CCCCCCCC=O [octanal] + CCO
[2]
Settings | mass density, 298.15 K [kg/m3] | mass density, 308.15 K [kg/m3] | mass density, 318.15 K [kg/m3] | viscosity, 298.15 K [mPa·s] | viscosity, 308.15 K [mPa·s] | viscosity, 318.15 K [mPa·s]
x1 = 0.1077 | 787.23 ± 2.9 | 779.83 ± 3.2 | 765.7 ± 3.5 | 1.1 ± 0.035 | 0.915 ± 0.029 | 0.786 ± 0.025
x1 = 0.2019 | 789.45 ± 2.9 | 781.64 ± 3.2 | 767.54 ± 3.5 | 1.11 ± 0.035 | 0.93 ± 0.029 | 0.803 ± 0.025
x1 = 0.3178 | 792.62 ± 2.9 | 784.21 ± 3.2 | 770.18 ± 3.5 | 1.122 ± 0.035 | 0.95 ± 0.03 | 0.825 ± 0.026
x1 = 0.3977 | 795.08 ± 2.9 | 786.22 ± 3.2 | 772.23 ± 3.5 | 1.131 ± 0.036 | 0.964 ± 0.03 | 0.84 ± 0.026
x1 = 0.4952 | 798.4 ± 2.9 | 788.92 ± 3.3 | 774.99 ± 3.6 | 1.142 ± 0.036 | 0.981 ± 0.031 | 0.859 ± 0.027
x1 = 0.6115 | 802.81 ± 3 | 792.5 ± 3.3 | 778.66 ± 3.6 | 1.155 ± 0.036 | 1.001 ± 0.031 | 0.883 ± 0.028
x1 = 0.7003 | 806.51 ± 3 | 795.5 ± 3.3 | 781.74 ± 3.6 | 1.165 ± 0.037 | 1.018 ± 0.032 | 0.901 ± 0.028
x1 = 0.798 | 810.9 ± 3 | 799.07 ± 3.3 | 785.39 ± 3.6 | 1.176 ± 0.037 | 1.036 ± 0.033 | 0.921 ± 0.029
x1 = 0.9089 | 816.3 ± 3 | 803.46 ± 3.3 | 789.88 ± 3.6 | 1.189 ± 0.037 | 1.057 ± 0.033 | 0.945 ± 0.03
x1 = 1 | 821.07 ± 3 | 807.34 ± 3.4 | 793.85 ± 3.7 | 1.2 ± 0.038 | 1.074 ± 0.034 | 0.965 ± 0.03
